Values quoted from earlier work as cited in US8895756B2, “Bendamustine pharmaceutical compositions” (priority 2005, dated 2014).

Settings: pure tertiary butanol vs pure acetic acid, dimethyl sulfoxide, methylhydroxy, water or TBA/water mixtures; cited from earlier work

## CN(CC(N)=O)C(=O)N(CCCl)N=O [SarCNU]
  relative stability in solvents: more stable in pure tertiary butanol
